In brackets after ≈: the same amount, converted by molar mass. Like-named read-outs stand apart in the source and are kept apart here.
Experiments:
[1] = Compound solubility in water; format: physicochemical
[2] = target: T1, glucocerebrosidase (Gcase) (Homo sapiens, UniProt P04062); assay: Glucocerebrosidase (Gcase) activation assay, 4-methylumbelliferyl-beta-D-glucopyranoside substrate, with saposin C; format: biochemical
T1 sequence (P04062 40-536): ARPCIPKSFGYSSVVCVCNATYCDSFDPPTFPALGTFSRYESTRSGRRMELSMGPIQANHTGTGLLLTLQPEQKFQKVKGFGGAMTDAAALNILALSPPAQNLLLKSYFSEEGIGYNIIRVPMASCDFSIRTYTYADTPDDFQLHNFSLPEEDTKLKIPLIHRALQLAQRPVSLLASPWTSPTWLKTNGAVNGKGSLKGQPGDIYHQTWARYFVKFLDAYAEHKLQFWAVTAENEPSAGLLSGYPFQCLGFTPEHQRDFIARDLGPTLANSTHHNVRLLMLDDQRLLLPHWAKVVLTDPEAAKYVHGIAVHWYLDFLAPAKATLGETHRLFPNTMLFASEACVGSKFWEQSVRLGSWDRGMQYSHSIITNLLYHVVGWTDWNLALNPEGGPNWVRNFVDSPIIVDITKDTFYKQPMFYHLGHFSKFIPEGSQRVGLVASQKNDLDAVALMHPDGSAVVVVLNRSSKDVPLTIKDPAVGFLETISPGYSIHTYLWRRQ
Procedure: The ability of exemplary compounds to activate glucocerebrosidase (Gcase) was measured.
A 484 μL aliquot of a 1.0 mg/mL solution of phosphatidylserine (PS) (Sigma P7769) in chloroform was evaporated under a stream of nitrogen for 1 hour. The lipid film was dissolved over 4 minutes of vigorous vortexing in 40 mL of 176 mM K2HPO4/50 mM citric acid (pH 4.7) containing 7.5 μL of triton X-100, resulting in a mixed micellar preparation with a composition of 0.32 mM triton and 0.37 mol % PS. 4-Methylumbelliferyl-beta-D-glucopyranoside (ACROS-337025000) was dissolved in the micellar solution to a final concentration of 2 mM for use as the reaction substrate.
Test compounds were diluted to the desired concentrations with dimethylsulfoxide (DMSO) from 10 mM stocks, and 0.41 μL of the DMSO compound mixture was added to 100 μL of micellar solution containing 10 nM GCase and 100 nM saposin C (Enzo ALX-201-262-C050). Pre-incubation was allowed to occur for 30 minutes at room temperature, after which the reaction was initiated by combining 25 μL of substrate solution with 25 μL of compound/GCase/saposin mixture. The reaction proceeded for 15 minutes at room temperature and was stopped by adding 150 μL of 1M glycine, pH 12.5. The endpoint of the reaction was monitored by measuring fluorescence intensity (excitation: 365 nm; emission: 440 nm) on a SpectraMax i3 instrument (Molecular Devices). Test compounds were screened at 1.0 and 0.1 μM final concentration, and subsequent 8-point dose response curves were obtained using 3-fold dilutions from a maximum final concentration of […].

[3] = test compound at 0.1 μM, read-out: Percent Gcase Activation, 0.1 μM Test Compound
[4] = test compound at 1.0 μM, read-out: Percent Gcase Activation, 1 μM Test Compound
[5] = 0.1 μM test compound, read-out: Percent Gcase Activation 0.1 μM Test Compound
[6] = 1 μM test compound, read-out: Percent Gcase Activation 1 μM Test Compound

SMILES	solubility ([1]; in water) [µg/mL]	activation at 0.1 µM [2, 3] [%]	activation at 1 µM [2, 4] [%]	solubility [1] [µg/mL]	activation at 0.1 µM [2, 5] [%]	activation at 1 µM [2, 6] [%]
C#CC(C)(C)NC(=O)c1ncn2c(C)cc(-c3cccc4c3OCO4)nc12 [IV-27]	1.1 (≈ 3.04 µM)	< 10	< 30	–	–	–
Cc1cc(-c2ccc3ocnc3c2)nc2c(C(=O)NC(C)C(F)(F)F)ncn12 (stereo not drawn) [IV-73]	2.1 (≈ 5.39 µM)	> 20	> 60	–	–	–
Cc1cc(C)n2cnc(C(=O)N[C@@H]3[C@@H]4CC[C@H]3C[C@@H](OC(C)(C)C)C4)c2n1 [IV-11]	4.9 (≈ 13.2 µM)	> 20	> 60	–	–	–
Cc1cc(-c2cccc(C(N)=O)c2)nc2c(C(=O)NC(C3CC3)C(F)(F)F)ncn12 (stereo not drawn) [IV-112]	1.1 (≈ 2.64 µM)	10 to 20	> 60	–	–	–
COc1c(F)cccc1-c1cc(C)n2cnc(C(=O)N[C@@H](C)C3CC3)c2n1 [IV-62]	16 (≈ 43.4 µM)	< 10	> 60	–	–	–
Cc1cc(-c2ccc3c(c2)OCO3)nc2c(C(=O)N[C@@H](C)C(F)(F)F)ncn12 [IV-78]	3.3 (≈ 8.41 µM)	> 20	> 60	–	–	–
Cc1cc(-c2cccc(C#N)n2)nc2c(C(=O)NC(C3CC3)C(F)(F)F)ncn12 (stereo not drawn) [IV-39]	0.3 (≈ 0.749 µM)	< 10	30 to 60	–	–	–
COc1cccc(-c2cc(C)n3cnc(C(=O)N[C@@H](C4CC4)C(F)(F)F)c3n2)n1 [IV-14]	3.2 (≈ 7.89 µM)	> 20	> 60	–	–	–
Cc1cc(-c2ccc(F)cc2)nc2c(C(=O)N[C@H](C3CC3)C(F)(F)F)ncn12 [IV-45]	2.5 (≈ 6.37 µM)	> 20	> 60	–	–	–
Cc1cc(-c2ccc(F)cc2)nc2c(C(=O)NC(C3CC3)C(F)(F)F)ncn12 (stereo not drawn) [IV-44]	0.8 (≈ 2.04 µM)	> 20	> 60	–	–	–
Cc1cc(-c2ccon2)nc2c(C(=O)NC(C3CC3)C(F)(F)F)ncn12 (stereo not drawn) [IV-9]	3.9 (≈ 10.7 µM)	< 10	30 to 60	–	–	–
Cc1cc(-c2ccns2)nc2c(C(=O)N[C@H](C3CC3)C(F)(F)F)ncn12 [IV-7]	9.9 (≈ 26 µM)	10 to 20	> 60	–	–	–
Cc1cc(-c2cscc2C#N)nc2c(C(=O)NC(C3CC3)C(F)(F)F)ncn12 (stereo not drawn) [IV-32]	0.6 (≈ 1.48 µM)	> 20	> 60	–	–	–
COc1cccc(-c2cc(C)n3cnc(C(=O)N[C@@H](C)C4CC4)c3n2)c1C#N [IV-68]	0.7 (≈ 1.86 µM)	> 20	> 60	–	–	–
COc1cc(F)cc(-c2cc(C)n3cnc(C(=O)N[C@@H](C)C4CC4)c3n2)c1 [IV-56]	3.7 (≈ 10 µM)	> 20	> 60	–	–	–
Cc1cc(-c2ccc(C#N)s2)nc2c(C(=O)NC(C3CC3)C(F)(F)F)ncn12 (stereo not drawn) [IV-86]	3.6 (≈ 8.88 µM)	> 20	> 60	–	–	–
Cc1cc(-c2ccc(F)cc2)nc2c(C(=O)N[C@@H](C3CC3)C(F)(F)F)ncn12 [IV-46]	0.8 (≈ 2.04 µM)	> 20	> 60	–	–	–
Cc1cc(-c2cnsc2)nc2c(C(=O)N[C@H](C3CC3)C(F)(F)F)ncn12 [IV-52]	15.4 (≈ 40.4 µM)	10 to 20	> 60	–	–	–
COc1cccc(-c2cc(C)n3cnc(C(=O)N[C@H](C4CC4)C(F)(F)F)c3n2)n1 [IV-13]	1.9 (≈ 4.69 µM)	> 20	> 60	–	–	–

Results, then the molecule that gave them:

solubility ([1]; in water) [µg/mL]	activation at 0.1 µM [2, 3] [%]	activation at 1 µM [2, 4] [%]	solubility [1] [µg/mL]	activation at 0.1 µM [2, 5] [%]	activation at 1 µM [2, 6] [%]	SMILES
–	–	–	0.7 (≈ 1.73 µM)	> 20	> 60	Cc1cc(-c2cccc(OC3CC3)c2)nc2c(C(=O)NC(C)C(F)(F)F)ncn12 (stereo not drawn) [III-169]
–	–	–	0.8 (≈ 1.96 µM)	> 20	> 60	Cc1cc(NC2CC2)nc2c(C(=O)NC(c3ccc(F)cc3)C(F)(F)F)ncn12 (stereo not drawn) [III-91]
–	–	–	6.7 (≈ 15.6 µM)	> 20	> 60	Cc1cc(-c2ccccn2)nc2c(C(=O)NC(c3ccc(F)cc3)C(F)(F)F)ncn12 (stereo not drawn) [III-49]
–	–	–	5.5 (≈ 15.4 µM)	> 20	> 60	Cc1cc(-c2cc(F)ccc2F)nc2c(C(=O)N[C@@H](C)C3CC3)ncn12 [III-112]
–	–	–	0.3 (≈ 0.85 µM)	> 20	> 60	C#CC(C)(C)NC(=O)c1ncn2c(C)cc(-c3cccc(Cl)c3)nc12 [III-135]
–	–	–	6.9 (≈ 18 µM)	< 10	> 60	COc1cc(C)nc2c(C(=O)NC(c3ccc(F)cc3)C(F)(F)F)ncn12 (stereo not drawn) [III-20]
–	–	–	1.7 (≈ 4.82 µM)	> 20	> 60	CCc1cc(-c2cccc(F)c2)nc2c(C(=O)N[C@@H](C)C3CC3)ncn12 [III-113]
–	–	–	3.8 (≈ 10.7 µM)	< 10	> 60	Cc1cc(-c2cccc(Cl)n2)nc2c(C(=O)N[C@@H](C)C3CC3)ncn12 [III-103]
–	–	–	12.1 (≈ 38.7 µM)	< 10	> 60	Cc1cc(C)n2cnc(C(=O)N[C@@H](C)C3CC4(CCC4)C3)c2n1 [III-102]
–	–	–	23.2 (≈ 67.7 µM)	< 10	< 30	Cc1cc(C2CCCOC2)nc2c(C(=O)NC(C)(C)C3CC3)ncn12 (stereo not drawn) [III-78]
–	–	–	1.2 (≈ 3.37 µM)	> 20	> 60	Cc1cc(-c2ccc(F)c(F)c2)nc2c(C(=O)NC(C)C3CC3)ncn12 (stereo not drawn) [III-85]
–	–	–	0.2 (≈ 0.564 µM)	< 10	< 30	COc1cc(-c2ccc(F)cc2)nc2c(C(=O)N[C@@H](C)C3CC3)ncn12 [III-34]
–	–	–	7.7 (≈ 21.3 µM)	> 20	> 60	Cc1cc(-c2ccc3ocnc3c2)nc2c(C(=O)N[C@@H](C)C3CC3)ncn12 [III-130]
–	–	–	11.6 (≈ 33.1 µM)	> 20	> 60	COc1ccccc1-c1cc(C)n2cnc(C(=O)NC(C)C3CC3)c2n1 (stereo not drawn) [III-52]
–	–	–	1.4 (≈ 4.14 µM)	> 20	> 60	COc1cccc(-c2cc(C)n3cnc(C(=O)NC(C)(C)C)c3n2)c1 [III-127]
–	–	–	5.9 (≈ 15.8 µM)	> 20	> 60	C#Cc1cccc([C@H](NC(=O)c2ncn3c(C)cc(C)nc23)C(F)(F)F)c1 [III-5]
–	–	–	20.5 (≈ 63.2 µM)	< 10	< 30	Cc1cc(-c2ncc[nH]2)nc2c(C(=O)NC(C)(C)C3CC3)ncn12 [III-117]
–	–	–	24.3 (≈ 66.3 µM)	10 to 20	> 60	Cc1cc(C)n2cnc(C(=O)NC(c3ccc(F)cc3)C(F)(F)F)c2n1 (stereo not drawn) [III-16]
–	–	–	33.3 (≈ 98.4 µM)	> 20	> 60	Cc1cc(-c2cccc(F)c2)nc2c(C(=O)NC(C)C3CC3)ncn12 (stereo not drawn) [III-50]
–	–	–	4.7 (≈ 12.5 µM)	10 to 20	> 60	Cc1cc(-c2ccccn2)nc2c(C(=O)NC(C3CC3)C(F)(F)F)ncn12 (stereo not drawn) [III-72]
–	–	–	1.4 (≈ 3.57 µM)	> 20	> 60	CCOc1cccc(-c2cc(C)n3cnc(C(=O)NC(C)C(F)(F)F)c3n2)c1 (stereo not drawn) [III-168]
–	–	–	19.7 (≈ 59.6 µM)	< 10	30 to 60	C#Cc1cccc(C2(NC(=O)c3ncn4c(C)cc(C)nc34)CC2)c1 [III-2]
–	–	–	2.2 (≈ 6.04 µM)	> 20	> 60	Cc1cc(-c2ccc(F)cc2)nc2c(C(=O)NC(C3CC3)C3CC3)ncn12 [III-87]
–	–	–	0.8 (≈ 2.11 µM)	< 10	30 to 60	CCOc1cccc(-c2cc(C)n3cnc(C(=O)NC(C)(C)C4CC4)c3n2)n1 [III-156]
–	–	–	1.5 (≈ 4.01 µM)	> 20	> 60	C#CC(C)(C)NC(=O)c1ncn2c(C)cc(-c3cccc(OC4CC4)c3)nc12 [III-186]
–	–	–	22.7 (≈ 67.1 µM)	< 10	> 60	Cc1cc(-c2ccccc2F)nc2c(C(=O)NC(C)C3CC3)ncn12 (stereo not drawn) [III-51]
